This is an account of results in patent US7803378B2, “Antigen imitating extracellular areas of membrane proteins of type III produced from intracellular pathogenic micro-organisms, derived conformational antibodies and the use thereof” (priority 2003, dated 2010).

The test system of experiment [1] is extracellular domains of the LMP1 protein. As to the kind of experiment: Immunogenic potency of LMP1 antigens: serum antibodies by ELISA after immunization. Format: in vivo, EBV. The settings on record: mice immunized with LMP1-derived peptide coupled to KLH or lipid. How it is done:
(§1) The LMP1-derived peptides containing only one exogenous cystein (SEQ ID Nos 10, 11, 12, 15, 16) were individually coupled to activated KLH (Imject maleimide-activated KLH®, Perbio) according to the supplier's protocol. Mice (4 animals per group) were injected subcutaneously in the flank, with an emulsion of peptide (50 μg in 0.1 ml H20) and of complete Freund's adjuvant (0.1 ml). On days 21, 42 and 62 following the first injection (D0), the animals are given a boost injection, by the same route, with the same amount of antigen but in incomplete Freund's adjuvant. […]
(§2) Blood samples are taken, by retro-orbital puncture, from the immunized mice, and the sera are then recovered and frozen at −20° C. in 20-μl fractions. […] The reaction is stopped by adding 4N sulfuric acid, and the absorption at 492 nm is measured using an automatic microplate reader (Dynatech).
Antibodies directed against the extracellular domains of the EBV LMP1 protein were prepared by immunization of mice with the peptides SEQ ID Nos 10 and 11 coupled to KLH, or else with the peptide SEQ ID No. 13 coupled to cholesterol, as described in example 1. The kinetics of appearance of the serum antibodies directed against the extracellular domains of the LMP1 protein were analyzed by ELISA, as described in example 1.
For orientation: ELISA stands for enzyme-linked immunosorbent assay.

Experiment [2] has as its system extracellular domains of the LMP2A protein. As to the kind of experiment: Immunogenic potency of the LMP2A antigens in mice and rats (ELISA). The experiment is classed as in vivo, EBV. The settings on record: comparison of LMP2A peptides SEQ ID Nos 15, 16, 17. The method, then:
as §1, §2
Antibodies directed against the extracellular domains of the LMP2A proteins were prepared by immunization of batches of 4 BALB/c mice or of batches of 3 LOU/M rats with the peptides SEQ ID Nos 15, 16 and 17 coupled to activated KLH as described in example 1. The response in terms of antibodies directed against the extracellular domains of the LMP2A protein was analyzed by ELISA, as described in example 1.

Take “SEQ ID No: 14: LMP1-(ED1 + ED2 + ED3) with linking residues between domains (MSDWTGGALCLWNLHGQALCLYLQQNWWT; Epstein Barr Virus)”: the “Immunogenic Potency” value in experiment [1] was “+(IgM)”.

As to TWRIEDPPFNSLCVDAVLQLSPL [SEQ ID No. 16], the humoral response result in experiment [2] is “best humoral response”.
